In patent US20250134892A1, “COMBINATION OF COMPOUNDS FOR TREATING VASCULAR DISEASES COMPRISING PDE5 INHIBITOR, ARGININE AND N-ACETYLCYSTEINE” (Future Pharmtech Inc., priority 2022, published 2025):
Like-named read-outs stand apart in the source and are kept apart here.

Key:
[1] = test system: HUVEC; test: Vascular fibrosis index: lipid peroxidation (malondialdehyde, MDA); format: cell-based, Human; details: vascular endothelial cells, treatment 10 min (FIG. 7)
Method: (§1) Sildenafil, arginine, N-acetylcysteine, and S-nitroso-N-acetylpenicillamine (SNAP) are dissolved and diluted in phosphate buffered saline (PBS). […] The solutions are stored at a temperature of 4° C.
(§2) Human umbilical vein endothelial cells (HUVEC) obtained from Bioresource Collection and Research Center (Hsinchu, Taiwan) were cultured in Ham's F-12K (Sigma-Aldrich) with endothelial cell growth supplement (Millipore), heparin (Sigma-Aldrich), 2.2 mg/mL sodium bicarbonate, and 10% FBS (Gibco). HUVEC at passage 5 to 15 were used in all applications. Human pulmonary artery vascular smooth muscle (PAVSM) cells and growth media were obtained from Lonza Inc. (Walkersville, MD., USA). Cells were grown in a 5% CO2 atmosphere at 37° C.
For cell treatments, HUVEC and PAVSM cells were grown in confluence respectively on the upper and lower wells of Transwell® units. Culture medium volume in each upper chamber was 1.5 mL, and in each lower chamber was 2.5 mL. […]
Lipid peroxidation in HUVEC protein extracts was quantified measuring the concentration of MDA by a spectrofluorometric assay using an “MDA assay kit” as described by Richard et al., 1992 (Richard et al. 1992). Quantification was achieved by parallel measurements of a standard curve of known MDA concentrations, and results were expressed as level change of the control.

[2] = test system: Human pulmonary artery vascular smooth muscle (PAVSM) cells; test: cGMP in smooth muscle cells (cGMP immunoassay); format: cell-based; details: for amount of cGMP compared with control group (drug treatment for 0 min): 100 nM sildenafil
Method: Sildenafil, arginine, N-acetylcysteine, and S-nitroso-N-acetylpenicillamine (SNAP) are dissolved and diluted in phosphate buffered saline (PBS). […] The solutions are stored at a temperature of 4° C. […] Human umbilical vein endothelial cells (HUVEC) obtained from Bioresource Collection and Research Center (Hsinchu, Taiwan) were cultured in Ham's F-12K (Sigma-Aldrich) with endothelial cell growth supplement (Millipore), heparin (Sigma-Aldrich), 2.2 mg/mL sodium bicarbonate, and 10% FBS (Gibco). HUVEC at passage 5 to 15 were used in all applications. Human pulmonary artery vascular smooth muscle (PAVSM) cells and growth media were obtained from Lonza Inc. (Walkersville, MD., USA). Cells were grown in a 5% CO2 atmosphere at 37° C. For cell treatments, HUVEC and PAVSM cells were grown in confluence respectively on the upper and lower wells of Transwell® units. Culture medium volume in each upper chamber was 1.5 mL, and in each lower chamber was 2.5 mL. […] All supernatants of HUVEC and PAVSM were collected right after the treatments for the NO amount analysis. HUVEC cells and PAVSM cells were rinsed in ice-cold phosphate buffered saline and then solubilized in ice-cold 6% trichloroacetic acid for the protein extraction. Samples were stored at −80° until the assays. Analysis of cGMP in Smooth Muscle Cells […] Nitric Oxide-Cyclic GMP Signaling Pathway as an Illustrative Example and Derivation of the General Case; PLOS COMPUTATIONAL BIOLOGY, DOI:10.1371/journal.pcbi.1004822 Mar. 17, 2016). cGMP formation was measured by immunoassay according to the cGMP Assay (Cayman Chemical Co., Ann Arbor, MI).

[3] = test system: Endothelial nitric oxide synthase (eNOS); test: Expression amount of endothelial nitric oxide synthase (eNOS assay kit); format: cell-based, Human; details: vascular endothelial cells, treatment 10 min (FIG. 3)
Method: Sildenafil, arginine, N-acetylcysteine, and S-nitroso-N-acetylpenicillamine (SNAP) are dissolved and diluted in phosphate buffered saline (PBS). […] The solutions are stored at a temperature of 4° C. […] Human umbilical vein endothelial cells (HUVEC) obtained from Bioresource Collection and Research Center (Hsinchu, Taiwan) were cultured in Ham's F-12K (Sigma-Aldrich) with endothelial cell growth supplement (Millipore), heparin (Sigma-Aldrich), 2.2 mg/mL sodium bicarbonate, and 10% FBS (Gibco). HUVEC at passage 5 to 15 were used in all applications. Human pulmonary artery vascular smooth muscle (PAVSM) cells and growth media were obtained from Lonza Inc. (Walkersville, MD., USA). Cells were grown in a 5% CO2 atmosphere at 37° C. For cell treatments, HUVEC and PAVSM cells were grown in confluence respectively on the upper and lower wells of Transwell® units. Culture medium volume in each upper chamber was 1.5 mL, and in each lower chamber was 2.5 mL. […] All supernatants of HUVEC and PAVSM were collected right after the treatments for the NO amount analysis. […] Analysis of Expression Amount of Endothelial Nitric Oxide Synthase Endothelial nitric oxide synthase (eNOS) activity was assessed using the eNOS assay kit (Promega). […] Relative Luminance Unit (RLU) emitted by the product was measured using a microreader.

[4] = test system: HUVEC; test: Quantitative free radical ROS content (Cm-H2DCFDA); format: cell-based, Human; details: vascular endothelial cells, treatment 10 min (FIG. 6)
Method: as §1, §2
For cell treatments, HUVEC and PAVSM cells were grown in confluence respectively on the upper and lower wells of Transwell® units. […]
Detection Mode of Quantitative Free Radical ROS Content
ROS detection studies were performed using a Cm-H2DCFDA ROS detection kit (Invitrogen, Grand Island, NY, USA). […] ROS generation was measured every 10 min up to 2 h with a micro-reader at 490 nm excitation, 530 nm emission. […] Samples were then measured immediately using a Promega microreader. ROS levels generated by 2.5×10^4 viable treated cells were expressed as the percentage of ROS produced by an equal number of viable negative control cells.

[5] = test system: HUVEC; test: Vascular permeability analysis: VEGF-A release content; format: cell-based, Human; details: vascular endothelial cells, treatment 10 min (FIG. 8)
Method: as §1, §2
For cell treatments, HUVEC and PAVSM cells were grown in confluence respectively on the upper and lower wells of Transwell® units. Culture medium volume in each upper chamber was 1.5 mL, and in each lower chamber was 2.5 mL. Confluent HUVEC cells were treated with regular medium in the presence or absence of S, SS, SN, SSN and SAN for 0, 10, 20, 30 and 60 min. All supernatants of HUVEC and PAVSM were collected right after the treatments for the NO amount analysis. […]
VEGFA amount was assessed using the VEGFA assay kit (Promega). […] Relative Absorbance Unit at 540 nm emitted by the product was measured using a microreader.

[6] = test system: Human umbilical vein endothelial cells (HUVEC); test: Nitric oxide release amount from endothelial cells (NO assay kit); format: cell-based; details: vascular endothelial cells; for release amount of nitric oxide compared with control group (drug treatment for 0 min): 100 nM sildenafil
Method: Sildenafil, arginine, N-acetylcysteine, and S-nitroso-N-acetylpenicillamine (SNAP) are dissolved and diluted in phosphate buffered saline (PBS). […] The solutions are stored at a temperature of 4° C. […] Human umbilical vein endothelial cells (HUVEC) obtained from Bioresource Collection and Research Center (Hsinchu, Taiwan) were cultured in Ham's F-12K (Sigma-Aldrich) with endothelial cell growth supplement (Millipore), heparin (Sigma-Aldrich), 2.2 mg/mL sodium bicarbonate, and 10% FBS (Gibco). HUVEC at passage 5 to 15 were used in all applications. Human pulmonary artery vascular smooth muscle (PAVSM) cells and growth media were obtained from Lonza Inc. (Walkersville, MD., USA). Cells were grown in a 5% CO2 atmosphere at 37° C. For cell treatments, HUVEC and PAVSM cells were grown in confluence respectively on the upper and lower wells of Transwell® units. Culture medium volume in each upper chamber was 1.5 mL, and in each lower chamber was 2.5 mL. […] All supernatants of HUVEC and PAVSM were collected right after the treatments for the NO amount analysis. HUVEC cells and PAVSM cells were rinsed in ice-cold phosphate buffered saline and then solubilized in ice-cold 6% trichloroacetic acid for the protein extraction. Samples were stored at −80° until the assays. Analysis of Nitric Oxide Release Amount from Endothelial Cells The nitric oxide amount was assessed using the NO assay kit (Promega). After treatment, the supernatants of HUVEC were collected for the NO assay reagent kit, and 200 μL per well was applied according to the manufacturer's instructions. Relative Luminance Unit (RLU) emitted by the product was measured using a microreader.

[7] = test system: erectile dysfunction; details: sildenafil alone, placebo 25%, cited from earlier work
[8] = sildenafil alone, healthy elderly subjects (65 years or older); cited from earlier work

## CCCc1nn(C)c2c(=O)[nH]c(-c3cc(S(=O)(=O)N4CCN(C)CC4)ccc3OCC)nc12 [SILD, sildenafil]
[1]
  amount of MDA compared with control group (with no drug treatment): about 2.8 folds
[2]; treatment 10 min (FIG. 4)
  amount of cGMP compared with control group (drug treatment for 0 min): about 2.6 folds
[2]; treatment 20 min (FIG. 4)
  amount of cGMP compared with control group (drug treatment for 0 min): ~3 folds
[2]; treatment 30 min (FIG. 4)
  amount of cGMP compared with control group (drug treatment for 0 min): ~4.7 folds
[2]; treatment 60 min (FIG. 4)
  amount of cGMP compared with control group (drug treatment for 0 min): ~5.5 folds
[2]; 10-min treatment (FIG. 5)
  amount of cGMP compared with control group (with no drug): about 2.6 folds
[3]
  expression amount of nitric oxide synthase compared with control group (with no drug): about 2 folds
[4]
  amount of ROS compared with control group (with no drug treatment): about 2.8 folds
[5]
  amount of VEGFA compared with control group (with no drug treatment): about 3.9 folds
[6]; treatment 10 min (FIG. 1)
  release amount of nitric oxide compared with control group (drug treatment for 0 min): about 1.6 folds
[6]; treatment 20 min (FIG. 1)
  release amount of nitric oxide compared with control group (drug treatment for 0 min): about 2.6 folds
[6]; treatment 30 min (FIG. 1)
  release amount of nitric oxide compared with control group (drug treatment for 0 min): about 3.1 folds
[6]; treatment 60 min (FIG. 1)
  release amount of nitric oxide compared with control group (drug treatment for 0 min): about 3.5 folds
[6]; 10-min drug treatment (FIG. 2)
  release amount of nitric oxide compared with control group (with no drug): about 1.6 folds
[7]; 25 mg
  proportion of disease improvement: 62%
[7]; 50 mg
  proportion of disease improvement: 74%
[7]; 100 mg
  proportion of disease improvement: 82%
[8]
  clearance rate in elderly subjects: decreased
